Assay results reported in patent publication US12433877B2, “Sustained release drug delivery systems and related methods” (Durect Corporation, priority 2021, dated 2025).
Counter-ions that a name gives are not always drawn.

What was measured:
[1] = tested on: patients undergoing a variety of general surgical procedures; assay: Example 18: safety, Holter monitoring; assay type: in vivo, human
Excerpt: Patient safety was carefully monitored throughout the trial with traditional assessments of AEs, vital signs, routine laboratory testing, and Holter monitoring (i.e., continuous recording of electrocardiogram) for 3 days after dosing. Special attention was given to cardiovascular and neurological AE, as bupivacaine toxic effects are manifest in those two body systems. In addition, special assessments were done to monitor surgical wound condition and healing over the 30 days of the trial. There were no consistent treatment-related effects on vital signs. Changes in serum chemistry and hematological parameters were those expected after major surgery, with few consistent differences between treatment groups. Cardiac safety was carefully studied using Holter monitoring for 72 hours post-dose, starting about one hour before surgery. In addition, baseline 24-hour ambulatory Holter monitoring was done after the screening visit.

clinical = conditions: human, in vivo; for half-life: t1/2 (min, max)
Experimental: Additionally, alpha 1 acid glycoprotein (AAG) plasma concentrations were measured in these two groups for correlation with free bupivacaine concentrations.
Using non-compartmental methods the following PK parameters were calculated from the plasma concentrations of each compound: area under the plasma concentration vs. time curve until the last measured concentration (AUCt), area under the plasma concentration vs. time curve extrapolated until infinity (AUCinf), the maximum concentration (Cmax), the time of its occurrence (tmax) and the apparent terminal elimination half-life (t1/2). […] The average […] of bupivacaine was approximately 5.2%; free bupivacaine plasma concentrations generally paralleled those of total bupivacaine. There was a large interindividual variability of Cmax of both total and free bupivacaine. […] Note: Table 1.5 presents Geometric mean, ±68th percentile for Cmax rather than absolute min,max.

[2] = Example 18: plasma pharmacokinetics by cohort; assay type: in vivo, human; conditions: Cohort 2; total bupivacaine in plasma
Experimental: Plasma PK samples were analyzed for determination of total bupivacaine concentration only and none of the samples were analyzed for determination of free drug concentration.

## CCCCN1CCCCC1C(=O)Nc1c(C)cccc1C (centres unmarked) [Bupivacaine HCl]
[1]; Cohort 1, % of subjects
  At Least One Cardiovascular TEAE: (39%)
  At Least One Neurological TEAE: (22%)
  At Least One Non-Opioid TEAE: (94%)
  At Least One Serious TEAE: (22%)
  At Least One TEAE: (94%)
  At Least One Wound Infection TEAE: (11%)
  Maximum Relationship to Study Drug: Not Related: (72%)
  Maximum Relationship to Study Drug: Related: (22%)
  Maximum Severity: Mild: (11%)
  Maximum Severity: Moderate: (61%)
  Maximum Severity: Severe: (22%)
[1]; Cohort 1, number of subjects
  At Least One Cardiovascular TEAE: 7
  At Least One Neurological TEAE: 4
  At Least One Non-Opioid TEAE: 17
  At Least One Serious TEAE: 4
  At Least One Serious and Related TEAE: 0
  At Least One Severe and Related TEAE: 0
  At Least One TEAE: 17
  At Least One TEAE Leading to Study Discontinuation: 0
  At Least One Wound Infection TEAE: 2
  Deaths: 0
  Maximum Relationship to Study Drug: Not Related: 13
  Maximum Relationship to Study Drug: Related: 4
  Maximum Severity: Mild: 2
  Maximum Severity: Moderate: 11
  Maximum Severity: Severe: 4
[1]; Cohort 2, % of subjects
  At Least One Cardiovascular TEAE: (10%)
  At Least One Neurological TEAE: (50%)
  At Least One Non-Opioid TEAE: (95%)
  At Least One Serious TEAE: (5%)
  At Least One Severe and Related TEAE: (5%)
  At Least One TEAE: (100%)
  At Least One TEAE Leading to Study Discontinuation: (5%)
  At Least One Wound Infection TEAE: (5%)
  Maximum Relationship to Study Drug: Not Related: (50%)
  Maximum Relationship to Study Drug: Related: (50%)
  Maximum Severity: Mild: (10%)
  Maximum Severity: Moderate: (65%)
  Maximum Severity: Severe: (25%)
[1]; Cohort 2, number of subjects
  At Least One Cardiovascular TEAE: 2
  At Least One Neurological TEAE: 10
  At Least One Non-Opioid TEAE: 19
  At Least One Serious TEAE: 1
  At Least One Serious and Related TEAE: 0
  At Least One Severe and Related TEAE: 1
  At Least One TEAE: 20
  At Least One TEAE Leading to Study Discontinuation: 1
  At Least One Wound Infection TEAE: 1
  Deaths: 0
  Maximum Relationship to Study Drug: Not Related: 10
  Maximum Relationship to Study Drug: Related: 10
  Maximum Severity: Mild: 2
  Maximum Severity: Moderate: 13
  Maximum Severity: Severe: 5
clinical
  AUC(0-inf): 30 to 2210 ng·h/mL
  AUC(0-t): 249 to 1900 ng·h/mL
  AUCinf (min, max), free bupivacaine: (0.7, 134) h · ng/mL
  AUCinf, free bupivacaine: 48 ng·h/mL
  AUCt (min, max), free bupivacaine: (0.010, 0.102) mg · h · L^−1
  AUCt, free bupivacaine: 33 ng·h/mL
  Cmax: 8 to 195 ng/mL
  Cmax, free bupivacaine: 5.0 ng/mL
  Cmax, total bupivacaine: 90 ng/mL
  Tmax: 0.92 to 12 h
  tmax (min, max), free bupivacaine: (0.92, 12.0) h
clinical; free bupivacaine
  half-life: 2.9 to 15.2 h
clinical; total bupivacaine
  half-life: 2.6 to 9.6 h
[2]
  Tmax Median: 1 h
